{
  "source": "patent US5958770A",
  "about": "“Glycoalkaloids” (priority 1990, dated 1999)",
  "key": {"[1]": {"test_system": "tumour", "details": "cited from earlier work"}, "[2]": {"test_system": "ovarian cancer cells", "experiment": "Inhibition of tritiated thymidine uptake, ovarian cancer cells", "protocol": "(§1) The inhibition of cell replication by steroid alkaloids is determined by the inhibition of the incorporation of ^3 H thymidine into DNA. Using this technique, it should be possible to monitor any preferential inhibition of uptake of ^3 H thymidine by cancer cells.\n(§2) Cells were maintained as monolayers in RPM1-1640 tissue culture media (Grant Island Biological Co) buffered with N-2-hydroxy-ethylpiperazine-N-2-ethanesulphonic acid pH 7.5 and supplemented with 10% heat inactivated fetal calf serum (FCS): (i) a human ovarian cancer cell line (C180-135), (ii) HeLa cells, (iii) human fibroblasts, and (iv) as a cell suspension of lymphoblastoid cells (EBV transformed lymphocytes). Monolayers were trypsinized to form a cell suspension. […] Cell concentration was adjusted to 2×10^5 cells/ml, and 2×10^4 cells were added in replicates of 10 to the wells (1×10^5 /ml well) of HA microtitre plates (Millipore Corp., USA). The cells were preincubated at 37.5° C. for 7 hours prior to the addition of 50 μl of the cytotoxic drug followed by the addition of 50 μl 5 uCi/ml of ^3 H thymidine, in the same tissue culture media 21 hours later. Incubation was continued for a total of 24 hours, which includes the pre-incubation time.\n(§3) Appropriate DMSO cytotoxicity studies were also conducted. Solasodine glycosides were supplied as a mixture (BEC), and as separate components, solamargine, solasonine, a mixture of di- and mono-glycosides and the aglycone solasodine. All cytotoxic drugs were further diluted with HIFCS/TCM before testing. 5×10^4 ovarian cancer cells (200 μl/chamber of a chamber of microscope slide (Lab Tek Miles Scientific) were used. Controls received 50 μl HIFCS/TCM and experimental chambers 50 μl of solasodine glycosides (BEC) 1.5-3.8 μM/L after 7 hrs preincubation, and incubated for a further 3 hrs. Similarly, the cells were treated with the aglycone solasodine 19.4-96.8 μM/L. The cells were fixed and examined by the Papanicolaou method."}, "[3]": {"test_system": "ovarian cancer cells, HeLa cells, lymphoblastoid cells, fibroblasts", "experiment": "Cytotoxicity / inhibition of tritiated thymidine uptake, cell types taken together", "protocol": "as §1, §2, §3"}, "[4]": {"test_system": "Sarcoma 180", "experiment": "Survival of mice with Sarcoma 180, with and without rhamnose", "format": "in vivo", "details": "aglycone; 100 mg/kg", "protocol": "Herston White mice with a body weight of approximately 30 g and aged 8-10 weeks served as recipients. Twelve mice were randomly chosen for each experimental group.\nSarcoma 180 tumour cells (5×10^5) were inoculated intraperitoneally into mice. This caused a mortality of 100% with a median survival time of 20 days in the control groups. A standard mixture of glycoalkaloids (BEC) was dissolved in dimethylsulfoxide at a concentration of 0.5 g BEC/100 ml dimethylsulfoxide. Similar solutions were made up but also contained 0.3125, 0.625 and 0.9375 g of rhamnose. These solutions were administered intraperitoneally in concentrations of 8 mg/kg animal weight for BEC (FIG. 9) without (-.tangle-solidup.-), and with 5 mg (-.quadrature.-), 10 mg (-.cndot.-) and 15 mg (-Δ-) rhamnose/kg animal weight. The first dose was given 0.5 hours after administration of the Sarcoma 180 tumour cells. The remaining three doses were given at daily intervals. Dimethylsulfoxide and rhamnose had no effect on Sarcoma 180 activity in the absence of BEC (-.smallcircle.-)."}, "[5]": {"details": "100 mg solasodine/kg; cited from earlier work"}, "[6]": {"test_system": "ovarian cancer cells", "experiment": "Morphological examination of ovarian cancer cells (Papanicolaou)", "format": "cell-based, human", "details": "19.4-96.8 μM/L; FIG. 2A", "protocol": "Appropriate DMSO cytotoxicity studies were also conducted.\nA human ovarian cancer cell line (C180-135) was grown as mono layers and trypsinized to form a cell suspension. The cells were adjusted to a concentration of 1×10^5 /ml (viability ≥95%) and 200 μl placed in each of the eight chambers of microscope chamber slides (Lab Tek, Miles Scientific). After 21 hours preincubation at 37.5° C., 50 μl of supplemented tissue culture media were added to the control chambers. To the other chambers were added 50 μl of solasodine glycosides (BEC) to give final concentrations of 3, 4.8, 6.7, 7.7, 9.6, 11.1 and 15.3 μM/L. Similarly, to a separate chamber slide was added the aglycone solasodine (19.4-96.8 μM/L). The slides were incubated at 37.5° C. for a further 3 hours, and the cells fixed in 95% V/V alcohol and stained by the Papanicolaou method. Two other chamber slides were prepared in a similar manner, but the solasodine glycosides and the aglycone were added at a final concentration of 0.77, 1.5, 2.3, 3.1 and 3.8 μM/L after 7 hours preincubation, and they incubated for a further 17 hours."}, "[7]": {"test_system": "unstimulated and stimulated lymphocytes", "details": "equivalent concentrations of DMG", "quoted_text": "(§4) This was cultured for 48 hours and pulsed with tritiated thymidine for a further 24 hours. In the inhibition studies, the cell concentration was 8×10^5 /ml.\n(§5) All cells were harvested by vacuum filtration by washing in 250 μl of each of phosphate buffered saline, 5% trichloroacetic acid, 1.0M NaCl and 95% ethanol and subjected to β-scintillatian counting. Similarly, peripheral human blood lymphocytes were isolated and cultured 2×10^5 lymphocytes in CO2 1640TCM 10% HIFCS. Lymphocytes were stimulated with 20 μg/ml PHA, Con A or PWM, and cultured for 48 hrs followed by a 24 hr pulse. […] Cell concentrations were 8×10^4 /well total volume 250 μl. The dpm of the experimental replicates were expressed as a percentage of the mean value of the controls, and the mean value of the experimental replicates calculated."}, "[8]": {"test_system": "unstimulated lymphocytes", "experiment": "Inhibition of tritiated thymidine uptake, unstimulated lymphocytes", "details": "much higher concentrations; unstimulated lymphocytes (FIG. 8e)", "quoted_text": "as §4, §5"}, "[9]": {"test_system": "cancer", "details": "rats; cited from earlier work"}, "[10]": {"test_system": "HeLa cells", "experiment": "cells", "protocol": "as §1, §2, §3"}, "[11]": {"test_system": "lymphoblastoid cells (EBV transformed lymphocytes)", "experiment": "cells", "protocol": "as §1, §2, §3"}, "[12]": {"test_system": "human fibroblasts", "experiment": "cells", "details": "FB; NSE = no significant effect", "protocol": "as §1, §2, §3"}, "[13]": {"experiment": "Inhibition of tritiated thymidine uptake, PWM stimulated lymphocytes", "details": "human, pwm stimulated lymphocytes", "quoted_text": "as §4, §5"}, "[14]": {"experiment": "Inhibition of tritiated thymidine uptake, Con A stimulated lymphocytes", "details": "human, con a stimulated lymphocytes", "quoted_text": "as §4, §5"}, "[15]": {"experiment": "Inhibition of tritiated thymidine uptake, PHA stimulated lymphocytes", "details": "human, pha stimulated lymphocytes", "quoted_text": "as §4, §5"}, "[16]": {"experiment": "Inhibition of tritiated thymidine uptake, unstimulated lymphocytes", "details": "human, unstimulated lymphocytes", "quoted_text": "as §4, §5"}},
  "data": [
    {"molecule": "C[C@H]1CC[C@]2(NC1)O[C@H]1C[C@H]3[C@@H]4CC=C5C[C@@H](O[C@@H]6O[C@H](CO)[C@@H](O[C@@H]7O[C@@H](C)[C@H](O)[C@@H](O)[C@H]7O)[C@H](O)[C@H]6O[C@@H]6O[C@@H](C)[C@H](O)[C@@H](O)[C@H]6O)CC[C@]5(C)[C@H]4CC[C@]3(C)[C@H]1[C@@H]2C", "note": "[B-solamarine]", "values": [
      {"measurement": "tumour inhibition", "setting": "[1]", "value": "tumour inhibitor"}
    ]},
    {"molecule": "C[C@@H]1CC[C@@]2(NC1)O[C@H]1C[C@H]3[C@@H]4CC=C5C[C@@H](O)CC[C@]5(C)[C@H]4CC[C@]3(C)[C@H]1[C@@H]2C", "note": "[solasodine]", "values": [
      {"measurement": "cytotoxic effect of aglycone", "setting": "[2]; higher concentrations (FIG. 7)", "value": "increase in cytotoxicity"},
      {"measurement": "lysosomotropic/mitochondrial inhibition", "setting": "[3]", "value": "lack of lysosomotropic/mitochondrial inhibition"},
      {"measurement": "cytotoxic effect of aglycone", "setting": "[3]; equivalent concentrations of solamargine (FIG. 6)", "value": "does not exert a cytotoxic effect"},
      {"measurement": "effectiveness against S180", "setting": "[4]", "value": "not effective"},
      {"measurement": "deaths in mice", "setting": "[5]", "value": "does not produce any deaths"},
      {"measurement": "morphological effect on ovarian cancer cells", "setting": "[6]", "value": "did not have any observable effect"},
      {"measurement": "cytotoxic effect of aglycone", "setting": "[7]", "value": "does not exert a cytotoxic effect"},
      {"measurement": "cytotoxic effect of aglycone", "setting": "[8]", "value": "substantial effect on unstimulated lymphocytes"}
    ]},
    {"molecule": "rhamnosyl [4→3] Solasodine [Solaplumbin]", "values": [
      {"measurement": "anticancer properties", "setting": "[9]", "value": "anticancer properties in rats"}
    ]},
    {"molecule": "O=C(O)CCCc1ccc(N(CCCl)CCCl)cc1", "note": "[chlorambucil, reference compound]", "values": [
      {"measurement": "TR50 (thymidine ratio relative to ovarian cancer cells)", "setting": "[10]; HeLa / OvCa", "value": 0.79},
      {"measurement": "IC50", "setting": "[10]; read-out: LD50 (dose to inhibit 50% tritiated thymidine uptake), HeLa", "value": 47.5, "unit": "µM"},
      {"measurement": "TR50 (thymidine ratio relative to ovarian cancer cells)", "setting": "[11]; LCL / OvCa", "value": 0.45},
      {"measurement": "IC50", "setting": "[11]; read-out: LD50 (dose to inhibit 50% tritiated thymidine uptake), LCL", "value": 27, "unit": "µM"},
      {"measurement": "LD50 (dose to inhibit 50% tritiated thymidine uptake)", "setting": "[12]", "value": "NSE"},
      {"measurement": "IC50", "setting": "[2]; read-out: LD50 (dose to inhibit 50% tritiated thymidine uptake), OvCa", "value": 60, "unit": "µM"},
      {"measurement": "cytotoxicity to normal cells relative to cancer cells", "setting": "[3]; normal versus cancer cells", "value": "equally or more cytotoxic to normal cells relative to cancer cells"},
      {"measurement": "CC50", "setting": "[13]", "value": 22, "unit": "µM"},
      {"measurement": "CC50", "setting": "[14]", "value": 33, "unit": "µM"},
      {"measurement": "CC50", "setting": "[15]", "value": 24.6, "unit": "µM"},
      {"measurement": "CC50", "setting": "[16]", "value": 33, "unit": "µM"}
    ]}
  ]
}
